Where a name gives a salt, the structure may show the parent alone.
Legend:
[1] = Solubility (0.2 μM filtration, LC/MS); assay type: physicochemical
Method: To determine whether a compound is soluble in a solution, the solution was filtered on 0.2 μM polytetrafluoroethylene filters (Whatman Inc. Clifton, N.J., USA) and the compound concentration in the filtrate was measured by LC/MS and compared to the expected concentration.
The column used was XTerra MS C18: 50×2.1 mm, 3.5 mm column at 20° C. Samples were injected and separated under the following conditions: The mobile phase “A” consisted of 5 mM ammonium formate, 0.1% formic acid in water and mobile phase “B” consisted of 5 mM ammonium formate, 0.1% formic acid in methanol. […] The Mass Spectrometer system consisted of a Waters ZQ2000 single quadrupole mass spectrometer (Waters, Milford, Mass., USA) equipped with an Electrospray Ionization Source (ES). The mass detector was operated in positive ion mode (ES+) and Selected Ion Recording mode (SIR). Compounds were detected at m/z equal to their respective molecular weight plus 1.

[2] = tested on: human prostatic adenocarcinoma cancer PC3 cells; assay: Growth of PC3 prostatic tumors in SCID mice; assay type: in vivo; details: 5 consecutive intravenous injections; 4.84 μMoles/Kg (Compound 1 Mesylate Salt), 4.84 or 14.51 μMoles/Kg (Compound 66); FIG. 6
Method: The human prostatic adenocarcinoma cancer PC3 cells were purchased from the American Type Culture Collection (ATCC). These cells were confirmed to be free of mycoplasma infection. Cells were maintained in the Roswell Park Memorial Institute (RPMI), supplemented with 10% inactivated fetal bovine serum and 1% penicillin-streptomycin-L-Glutamine, under 5% carbon dioxide (CO2) at 37° C. For prostatic-tumor induction, cells were grown lower than 70% confluence in complete medium and then collected with trypsin (Bio Whittaker, Rockland, Me., USA). Cells were then centrifuged and washed 2 times in phosphate buffer solution (PBS) and resuspended in PBS at 1.5×10^6 cells/0.1 mL. PC3 cells were then transplanted subcutaneously into the flank of SCID mice (Charles River Laboratories, Wilmington, Mass., USA), as a suspension of tumor cells (1.5×10^6 cells in 100 μL PBS), under a laminar airflow hood. Eleven (11) days later, the size of each tumor was measured. […] Relative tumor size and volume was calculated as follows: length (cm)×[width (cm)]^2/2. […]

[3] = tested on: calf intestinal alkaline phosphatase; assay: Conversion of phosphate pro-drug by calf intestinal alkaline phosphatase in vitro; assay type: in vitro ADME; details: 15 μM, 0.02 U/100 μL enzyme, pH 7.4, 30-120 minutes; FIG. 5
Method: (§1) The conversion into biologically active drug of phosphate pro-drugs by calf intestinal alkaline phosphatase and human placental alkaline phosphatase was measured in vitro using purified enzymes. Purified calf intestinal alkaline phosphatase (Roche Diagnostic Inc. Laval, Quebec, Canada) or human placental alkaline phosphatase (Sigma-Aldrich Canada Ltd. Oakville, Ontario, Canada) was added at a concentration of 0.02 U/100 μL to a solution containing 15 μM of Compound 66, 20 mM Tris-HCl, pH 7.4 and 0.9% NaCl. The solutions were incubated for 30, 60 or 120 minutes. A solution containing 15 μM of Compound 66, 20 mM Tris-HCl, pH 7.4 and 0.9% NaCl was used as a reference (time=0 minutes). To each solution, an equal volume (100 μL) of ice-cold acetonitrile was added, and then the mixture was vortexed and transferred to glass vials. A standard concentration curve of the pro-drug and the drug was prepared in 10 mM Tris-HCl, pH 7.4, 0.45% NaCl and 50% acetonitrile. All samples were immediately analyzed by LC/MS.

[4] = molecular target: T1, human placental alkaline phosphatase (Homo sapiens, UniProt P05187); assay: Conversion of phosphate pro-drug by human placental alkaline phosphatase in vitro; assay type: in vitro ADME; details: 15 μM, 0.02 U/100 μL enzyme, pH 7.4, 30-120 minutes; FIG. 4
T1 construct: purchased Sigma-Aldrich Canada Ltd
Method: as §1

[5] = Shelf stability (precipitation) of the formulated compound; assay type: physicochemical; details: 0.6 mg/mL in 9.6% polyethylene glycol 300, 0.4% polysorbate 20 and 5% dextrose
Method: Compound 1 Tartrate salt solubility is equal to 0.1 mg/mL. […] This increase in solubility has a positive impact on the shelf stability of formulated Compound 1.

[6] = Body weight and deaths of tumor-bearing SCID mice under treatment; assay type: in vivo, CB17 SCID/SCID mice; details: for change in body weight: 4.5 mg/kg IV once daily for five days, FIG. 2
Method: (§2) There were three treatment groups of ten mice each: (a) a negative control group, (b) a positive control group and (c) a group treated with Compound 1 Tartrate.
(§3) Treatments started on day fourteen after C33A cells transplantation. Compound 1 Tartrate was administered IV once daily for five consecutive days at a dose of 4.5 mg/kg. Compound 1 Tartrate was prepared fresh daily in a vehicle solution of 5% Dextrose (Abbot Laboratories, QC, Canada) and 2% polysorbate 20 (Sigma, St. Louis, Mo., USA). The negative control group was treated with vehicle alone. The injection volume for both Compound 1 Tartrate group and the negative control group was 150 μl.
(§4) Observation continued for 40 days after initial tumor implantation.

[7] = tested on: cancer cell lines H1299 and C33A; normal cell lines HMEC and MRC-5; assay: ATP levels in cancer versus normal cell lines (FIG. 1); assay type: cell-based; details: 72 hours after treatment with 0.5 μM
Method: One day after plating, the cells were treated with various concentrations of Compound 1 Tartrate. Stock solutions of the Compound 1 Tartrate were prepared in dimethyl sulfoxide (Sigma-Aldrich Inc., St. Louis, Mo., USA), diluted in the recommended media and then added to the cells. The total dimethyl sulfoxide on the cells was 1%. […] The results were plotted relative to untreated control cells, which were set at a value of 100.

[8] = tested on: C33A human cervical cancer cells; assay: Growth of C33A cervical tumors in SCID mice; assay type: in vivo, CB17 SCID/SCID mice
Method: as §2, §3, §4

T1 sequence (P05187 23-506): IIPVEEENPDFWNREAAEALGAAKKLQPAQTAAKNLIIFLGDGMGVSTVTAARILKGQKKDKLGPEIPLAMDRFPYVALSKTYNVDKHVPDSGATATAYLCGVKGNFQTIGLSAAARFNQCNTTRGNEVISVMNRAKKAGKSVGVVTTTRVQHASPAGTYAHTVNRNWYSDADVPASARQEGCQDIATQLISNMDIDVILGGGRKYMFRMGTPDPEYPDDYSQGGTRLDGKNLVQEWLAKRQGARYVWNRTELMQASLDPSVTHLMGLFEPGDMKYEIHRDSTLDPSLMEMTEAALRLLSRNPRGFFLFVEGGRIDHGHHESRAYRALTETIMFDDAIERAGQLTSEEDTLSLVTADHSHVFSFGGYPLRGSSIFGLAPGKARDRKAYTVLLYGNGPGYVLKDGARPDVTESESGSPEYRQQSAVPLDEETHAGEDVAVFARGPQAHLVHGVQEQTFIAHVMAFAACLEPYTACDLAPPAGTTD

COC1=CC(c2cc3ccccc3[nH]2)=N/C1=C\c1[nH]c(C)cc1C [Compound 1]
solubility in water (in words) ([1]; water): poorly soluble in water

COC1=CC(c2cc3ccccc3n2C(=O)CC(C)(C)c2c(C)cccc2OP(=O)(O)O)=N/C1=C/c1[nH]c(C)cc1C [Compound 66]
growth of prostatic tumors [2]: significantly reduce the growth of prostatic tumors in mice | conversion of pro-drug into Compound 1 [3]: convert a fraction of the pro-drug Compound 66 present in solution into the drug Compound 1 within two hours | conversion of pro-drug into Compound 1 [4]: convert a fraction of the pro-drug Compound 66 present in solution into the drug Compound 1 within two hours

COC1=CC(c2cc3ccccc3[nH]2)=N/C1=C\c1[nH]c(C)cc1C [Compound 1 Mesylate Salt]
growth of prostatic tumors [2]: significantly reduce the growth of prostatic tumors in mice | precipitation of the formulation [5]: shows no evidence of precipitation 72 hours after its preparation

N.N.[Cl][Pt][Cl] [cisplatin]
deaths in the group ([6]; days 29 and 32, 4 mg/kg IP, group of ten mice): Two mice died | body weight lost by the mouse that died ([6]; mouse that died on day 29, 4 mg/kg IP): 2.2 g | body weight lost by the mouse that died ([6]; mouse that died on day 32, 4 mg/kg IP): 7 g

COC1=CC(c2cc3ccccc3[nH]2)=N/C1=C\c1[nH]c(C)cc1C [Compound 1 tartrate]
effect on ATP levels in cancer cells versus normal cells [7]: significantly more effective at lowering ATP levels in the cancer cell lines H1299 and C33A compared with the ATP levels in normal cell lines HMEC and MRC-5 | change in body weight [6]: no significant changes in body weight | change in body weight ([6]; listed as Compound 1 Tartrate): non-significant weight loss | reduction in tumor growth compared to vehicle ([8]; 4.5 mg/kg IV once a day for five days, FIG. 3): statistically significant (p<0.0001) reduction in tumor growth | average tumor size compared to vehicle ([8]; days 36 and 39, 4.5 mg/kg): significantly (p<0.001) smaller tumors on average | solubility ([1]; water (stated for Compound 66), filtrate of 0.2 μM filter by LC/MS, listed as Compound 1 Tartrate salt): 100 µg/mL | precipitation of the formulation ([5]; listed as Compound 1 Tartrate Salt): tends to precipitate one hour after its preparation
